Active and inactive are the calls of the source. No cut-off for these calls is given here.

Data set [1] deals with C-X-C chemokine receptor type 4 (Homo sapiens) (UniProt P61073). The data set is described as follows: Inhibition of biotinylated TN14003 binding to CXCR4 in human MDA-MB-231 cells assessed as reduction in fluorescence preincubated for 10 mins followed by biotinylated-TN14003 addition measured after 30 mins by streptavidin-rhodamine staining based immunofluorescence microscopic analysis. Type of data set: cell-based.
Sequence of C-X-C chemokine receptor type 4 (Homo sapiens) (P61073 whole entry): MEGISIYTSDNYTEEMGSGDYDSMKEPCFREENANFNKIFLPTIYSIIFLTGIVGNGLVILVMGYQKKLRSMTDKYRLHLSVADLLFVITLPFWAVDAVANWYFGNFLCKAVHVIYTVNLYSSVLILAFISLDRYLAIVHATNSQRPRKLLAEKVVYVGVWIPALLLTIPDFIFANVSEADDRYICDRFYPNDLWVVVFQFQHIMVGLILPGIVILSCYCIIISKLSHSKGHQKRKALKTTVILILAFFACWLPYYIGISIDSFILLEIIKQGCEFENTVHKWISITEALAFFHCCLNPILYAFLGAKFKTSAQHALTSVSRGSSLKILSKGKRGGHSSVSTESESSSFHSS

The target is the same in data set [2]. The data set is described as follows: Potency index, ratio of AMD3100 EC to compound EC for inhibition of biotinylated TN14003 binding to CXCR4 in human MDA-MB-231 cells. It is filed as functional, cell-based.
Data set [3] shares this target. Put plainly: Inhibition of CXCR4-mediated chemotaxis in human MDA-MB-231 cells assessed as inhibition of CXCL12alpha-induced cell invasion at 100 nM after 22 hrs by hematoxylin/eosin dye-based matrigel assay relative to control. It is filed as functional.
For data set [4], the system named is Mus musculus. The data set is described as follows: Antiinflammatory activity in mouse assessed as inhibition of xylene-induced ear edema at 10 mg/kg, ip treated post 30 mins xylene treatment measured at 2 hrs post dose relative to control. Type of data set: functional.
Data set [5] deals with Mus musculus. Put plainly: Antiinflammatory activity in mouse assessed as inhibition of xylene-induced increase in number of inflammatory cells in ear at 10 mg/kg, ip treated post 30 mins xylene treatment measured at 2 hrs post last dose by histological analysis. It is filed as functional, organism-based.
For data set [6], the system named is Mus musculus. Put plainly: Antiinflammatory activity in mouse assessed as inhibition of xylene-induced ear edema volume at 10 mg/kg, ip treated post 30 mins xylene treatment measured at 2 hrs post dose by histological analysis. It is filed as functional, organism-based.
Data set [7] deals with C-X-C chemokine receptor type 4 (Homo sapiens) (UniProt P61073). The data set is described as follows: Inhibition of CXCR4 in human MDA-MB-231 cells assessed as reduction in CXCR4/[…] signaling-mediated Akt Ser473 phosphorylation by Western blot analysis. It is filed as functional, cell-based.
The test system of the next data set is MDA-MB-231. The data set is described as follows: Cytotoxicity against human MDA-MB-231 cells assessed as inhibition of cell proliferation at 10 uM after 24 to 72 hrs by MTT assay. It is filed as cell-based. Particulars: mda-mb-231, 10 µM.
A further data set has as its system MCF-10A. Put plainly: Antiproliferative activity in human MCF10A cells at 10 uM after 24 to 72 hrs by MTT assay. Type of data set: cell-based.
Data set [8] has as its system Mus musculus. The data set is described as follows: Antiinflammatory activity in mouse assessed as inhibition of xylene-induced ear thickness at 10 mg/kg, ip treated post 30 mins xylene treatment measured at 2 hrs post dose by histological analysis. It is filed as functional, organism-based.
Data set [9] in a line: Stability in nude mouse plasma assessed as parent compound remaining at 30 mg/kg, iv after 5 mins by HPLC analysis. The following applies: read-out: Stability. It is filed as ADME, organism-based.
Data set [10] in a line: Stability in nude mouse plasma assessed as parent compound remaining at 30 mg/kg, iv after 20 mins by HPLC analysis. Particulars: read-out: Stability. Type of data set: ADME, organism-based.
A short description of data set [11]: Stability in nude mouse plasma assessed as parent compound remaining at 30 mg/kg, iv after 50 mins by HPLC analysis. It is filed as ADME, organism-based. The following applies: read-out: Stability.
Data set [12] is described as follows: Half life in nude mouse plasma at 30 mg/kg, iv by HPLC analysis. It is filed as ADME, organism-based.
The nature of data set [13]: Stability in nude mouse plasma assessed as parent compound remaining at 30 mg/kg, iv after 1 hr by HPLC analysis. Type of data set: ADME, organism-based. The following applies: in vivo.
Data set [14] concerns CXCR4. The data set is described as follows: Selectivity index, ratio of antiproliferative activity in human MDA-MB-231 cells to EC for inhibition of biotinylated TN14003 binding to CXCR4 in human MDA-MB-231 cells. It is filed as toxicity, cell-based. The following applies: probe biotinylated TN14003, read-out: Selectivity Index.
The test system of data set [15] is CXCR4. Put plainly: Selectivity index, ratio of antiproliferative activity in human MCF10A cells to EC for inhibition of biotinylated TN14003 binding to CXCR4 in human MDA-MB-231 cells. It is filed as toxicity, cell-based. Particulars: probe biotinylated TN14003, read-out: Selectivity Index.

As for `Cc1ccc(S(=O)(=O)NCc2ccc(CNC(=O)c3cccc(F)c3)cc2)cc1`, the EC in [1] turned out to be 1 nM. Moreover, in data set [2], the Ratio is 1000. Besides, the inhibition in data set [3] turned out to be 55%.
Consider `O=C(NCc1ccc(CNS(=O)(=O)c2ccccc2)cc1)c1ccc(F)cc1`, for which the EC in data set [1] amounted to 100 nM. Also, the inhibition in data set [3] is greater than 60%. For the same molecule, the inhibition in vivo at 10 mg/kg in the data set with Mus musculus [4] came to 40%.
In the case of `Cc1ccc(S(=O)(=O)NCc2ccc(CNC(=O)c3cccc(Cl)c3)cc2)cc1`, the EC in data set [1] is 100 nM. Also, the inhibition in data set [3] was greater than 60%. For the same molecule, the inhibition in vivo at 10 mg/kg in the data set with Mus musculus [4] is 57%.
Consider `Cc1ccc(C(=O)NCc2ccc(CNS(=O)(=O)c3ccccc3)cc2)cc1`, for which the EC in data set [1] was found to be 100 nM. Further, the inhibition in data set [3] is less than 50%.
As to `COc1cccc(C(=O)NCc2ccc(CNS(=O)(=O)c3ccc(C)cc3)cc2)c1`, the EC in data set [1] worked out at 10 nM. In [3], the inhibition is greater than 90%. Besides, the inhibition in vivo at 10 mg/kg in the data set on Mus musculus [4] amounted to 28%.
Turning to `O=C(NCc1ccc(CNS(=O)(=O)c2ccccc2)cc1)c1ccc(Cl)cc1`, in data set [1], the EC came out at 100 nM. The inhibition in data set [3] is less than 50%.
Take `O=C(NCc1ccc(CNS(=O)(=O)c2ccccc2)cc1)c1c(Cl)cc(Cl)cc1Cl`: in data set [1], the EC was 10 nM. In addition, the inhibition in [3] was greater than 60%. Also, the inhibition result with Mus musculus [4] was “inactive”.
On to `Cc1ccc(S(=O)(=O)NCc2ccc(CNC(=O)c3ccccc3F)cc2)cc1`, for which, in data set [1], the EC worked out at 1000 nM.
Turning to `COc1ccc(C(=O)NCc2ccc(CNS(=O)(=O)c3ccccc3)cc2)cc1`, the EC in [1] turned out to be 1000 nM.
Take `Cc1ccccc1C(=O)NCc1ccc(CNS(=O)(=O)c2ccccc2)cc1`: the EC in [1] was determined as 1 nM. Besides, the Ratio in data set [2] came out at 1000. Also, the inhibition in data set [3] is greater than 90%. Moreover, the inhibition result with Mus musculus [4] is “inactive”.
`O=C(NCc1ccc(CNS(=O)(=O)c2ccccc2)cc1)c1ccncc1`: in [1], the EC is 10 nM. Further, the inhibition in data set [3] is greater than 60%. Besides, the inhibition in vivo at 10 mg/kg in the data set with Mus musculus [4] is 40%.
In the case of `COc1ccccc1C(=O)NCc1ccc(CNS(=O)(=O)c2ccccc2)cc1`, the EC in [1] worked out at 1 nM. The Ratio in data set [2] was determined as 1000. Besides, the inhibition in [3] is greater than 90%. Besides, in the data set on Mus musculus [4], the inhibition result is “inactive”.
On to `Cc1ccc(S(=O)(=O)NCc2ccc(CNC(=O)c3ccccc3C)cc2)cc1`, for which the EC in data set [1] was found to be 100 nM. For the same molecule, the inhibition in data set [3] is less than 50%.
For `Cc1ccc(S(=O)(=O)NCc2ccc(CNC(=O)c3c(Cl)cc(Cl)cc3Cl)cc2)cc1`, in data set [1], the EC is 10 nM. Further, the inhibition in data set [3] was found to be 55%.
For `Cc1ccc(S(=O)(=O)NCc2ccc(CNC(=O)c3ccc(Cl)cc3)cc2)cc1`, in data set [1], the EC is 10 nM. Moreover, the inhibition in data set [3] is greater than 60%. In the data set on Mus musculus [4], the inhibition in vivo at 10 mg/kg stood at 50%.
Regarding `O=C(NCc1ccc(CNS(=O)(=O)c2ccccc2)cc1)c1ccc([N+](=O)[O-])cc1`, the EC in data set [1] turned out to be 100 nM. In [3], the inhibition stood at 55%.
Regarding `Cc1ccc(S(=O)(=O)NCc2ccc(CNC(=O)c3cccnc3)cc2)cc1`, the EC in data set [1] is greater than 1000 nM.
As for `Cc1cccc(C(=O)NCc2ccc(CNS(=O)(=O)c3ccccc3)cc2)c1`, the EC in data set [1] came out at 1000 nM.
Regarding `O=C(NCc1ccc(CNS(=O)(=O)c2ccccc2)cc1)c1ccccc1`, in data set [1], the EC came out at 1 nM. Further, in [2], the Ratio was 1000. The inhibition in data set [3] is greater than 60%. In addition, in the data set with Mus musculus [4], the inhibition in vivo at 10 mg/kg was 62%.
As for `COc1ccccc1C(=O)NCc1ccc(CNS(=O)(=O)c2ccc(C)cc2)cc1`, the EC in data set [1] was 100 nM. The inhibition in [3] was greater than 90%. Also, the inhibition entry in the data set on Mus musculus [4] was “inactive”.
Turning to `O=C(NCc1ccc(CNS(=O)(=O)c2ccccc2)cc1)c1ccccc1F`, the EC in [1] was determined as 1000 nM.
Regarding `Cc1ccc(C(=O)NCc2ccc(CNS(=O)(=O)c3ccc(C)cc3)cc2)cc1`, the EC in data set [1] stood at 1000 nM.
As for `O=C(NCc1ccc(CNS(=O)(=O)c2ccccc2)cc1)c1cccc(Cl)c1`, the EC in data set [1] turned out to be 1000 nM.
In the case of `Cc1ccc(S(=O)(=O)NCc2ccc(CNC(=O)c3ccc(F)cc3)cc2)cc1`, the inhibition result in the data set with Mus musculus [5], in the data set with Mus musculus [6] and in the data set with Mus musculus [8] was “Active” throughout. Besides, the EC in data set [1] was determined as 1 nM. The inhibition in [3] is greater than 60%; in [7], “Dose-dependent effect”. Besides, the Activity entry in the data set on MDA-MB-231 and in the data set on MCF-10A was “Non-Toxic” throughout. Besides, the inhibition in vivo at 10 mg/kg in the data set with Mus musculus [4] was found to be 75%. In addition, the remaining at 5 min in data set [9] stood at 100%. Besides, the remaining at 20 min in data set [10] came out at 65%. Moreover, the remaining at 50 min in [11] amounted to 45%. The same molecule yielded a half-life in data set [12] of 40 min. The Stability entry in data set [13] was “Stable”. Besides, the selectivity ratio in the data set with CXCR4 [14] and in the data set on CXCR4 [15] was 1000 throughout.
`O=C(NCc1ccc(CNS(=O)(=O)c2ccccc2)cc1)c1ccccc1Cl`: the EC in [1] was 10 nM. Moreover, in data set [3], the inhibition was greater than 60%. The inhibition result with Mus musculus [4] is “inactive”.
For the molecule `COc1cccc(C(=O)NCc2ccc(CNS(=O)(=O)c3ccccc3)cc2)c1`, the EC in data set [1] was greater than 1000 nM.
With `O=C(NCc1ccc(CNS(=O)(=O)c2ccccc2)cc1)c1cccc(F)c1`, the EC in data set [1] turned out to be 100 nM. In addition, the inhibition in [3] is greater than 60%.
In the case of `Cc1ccc(S(=O)(=O)NCc2ccc(CNC(=O)c3ccncc3)cc2)cc1`, the EC in [1] was determined as 10 nM. Moreover, the inhibition in data set [3] amounted to 55%.
`COc1ccc(C(=O)NCc2ccc(CNS(=O)(=O)c3ccc(C)cc3)cc2)cc1`: in data set [1], the EC came to 100 nM. Moreover, in [3], the inhibition came to 55%.
Regarding `Cc1ccc(S(=O)(=O)NCc2ccc(CNC(=O)c3ccccc3Cl)cc2)cc1`, in data set [1], the EC turned out to be 10 nM. Besides, in data set [3], the inhibition is greater than 90%. Besides, the inhibition in vivo at 10 mg/kg in the data set with Mus musculus [4] was 26%.
With `Cc1ccc(S(=O)(=O)NCc2ccc(CNC(=O)c3ccccc3)cc2)cc1`, in data set [1], the EC is greater than 1000 nM.
With `Cc1ccc(S(=O)(=O)NCc2ccc(CNC(=O)c3ccc([N+](=O)[O-])cc3)cc2)cc1`, in data set [1], the EC is 10 nM. In [3], the inhibition turned out to be 55%.
As for `O=C(NCc1ccc(CNS(=O)(=O)c2ccccc2)cc1)c1cccnc1`, the EC in [1] came to 10 nM. Further, in data set [3], the inhibition was greater than 60%. In addition, in the data set with Mus musculus [4], the inhibition in vivo at 10 mg/kg was 53%.
In the case of `Cc1ccc(S(=O)(=O)NCc2ccc(CNC(=O)c3cccc(C)c3)cc2)cc1`, the EC in [1] worked out at 1000 nM.
